Test [1] has as its target T1, Recombinant ROCK1 (amino acids 1-477) (Homo sapiens, UniProt Q13464).
T1 construct: Recombinant ROCK1 (amino acids 1-477); by word order, ROCK1 from Carna Biosciences
In words: ROCK inhibition assay, LANCE Ultra TR-FRET kinase assay (ROCK1). The class given is biochemical. Particulars: 1 μM ATP, 50 nM ULight-CREBtide substrate. A digest of the protocol: (§1)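 LANCE Ultra TR-FRET kinase assay with recombinant ROCK1 (aa 1-477) or ROCK2 (aa 5-554), 50 nM ULight-CREBtide and ATP at 1 μM (ROCK1) or 4 μM (ROCK2) in HEPES pH 7.5 with MgCl2, 1 h at room temperature. EDTA stop with Eu anti-phospho-CREB Ser133 antibody; 665/615 nm read gives IC50.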
For orientation: In TR-FRET formats the signal depends on donor and acceptor labels being close together.

In test [2] the target is T2, Recombinant ROCK2 (amino acids 5-554) (Homo sapiens, UniProt O75116).
T2 construct: ROCK2 (amino acids 5-554); by word order, ROCK2 from SignalChem
In words: ROCK inhibition assay, LANCE Ultra TR-FRET kinase assay (ROCK2). The class given is biochemical. Particulars: 4 μM ATP, 50 nM ULight-CREBtide substrate. The method in brief: as §1

Structures are written as SMILES. pIC50: −log10 of the molar value. Bounds are passed on as bounds.

T1 sequence (Q13464 1-477): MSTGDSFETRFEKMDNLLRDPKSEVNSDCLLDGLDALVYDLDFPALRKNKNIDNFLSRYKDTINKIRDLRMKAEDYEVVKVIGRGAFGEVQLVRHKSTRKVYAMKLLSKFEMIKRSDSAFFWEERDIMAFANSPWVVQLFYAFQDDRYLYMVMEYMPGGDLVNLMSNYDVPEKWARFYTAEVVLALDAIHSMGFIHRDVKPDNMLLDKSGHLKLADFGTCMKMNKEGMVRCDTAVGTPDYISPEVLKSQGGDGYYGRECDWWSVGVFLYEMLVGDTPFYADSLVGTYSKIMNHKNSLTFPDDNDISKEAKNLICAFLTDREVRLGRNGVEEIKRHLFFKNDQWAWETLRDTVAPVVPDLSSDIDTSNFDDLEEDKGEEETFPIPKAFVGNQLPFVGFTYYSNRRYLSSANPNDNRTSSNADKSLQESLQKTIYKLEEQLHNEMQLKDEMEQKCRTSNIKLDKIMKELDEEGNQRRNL
T2 sequence (O75116 5-554): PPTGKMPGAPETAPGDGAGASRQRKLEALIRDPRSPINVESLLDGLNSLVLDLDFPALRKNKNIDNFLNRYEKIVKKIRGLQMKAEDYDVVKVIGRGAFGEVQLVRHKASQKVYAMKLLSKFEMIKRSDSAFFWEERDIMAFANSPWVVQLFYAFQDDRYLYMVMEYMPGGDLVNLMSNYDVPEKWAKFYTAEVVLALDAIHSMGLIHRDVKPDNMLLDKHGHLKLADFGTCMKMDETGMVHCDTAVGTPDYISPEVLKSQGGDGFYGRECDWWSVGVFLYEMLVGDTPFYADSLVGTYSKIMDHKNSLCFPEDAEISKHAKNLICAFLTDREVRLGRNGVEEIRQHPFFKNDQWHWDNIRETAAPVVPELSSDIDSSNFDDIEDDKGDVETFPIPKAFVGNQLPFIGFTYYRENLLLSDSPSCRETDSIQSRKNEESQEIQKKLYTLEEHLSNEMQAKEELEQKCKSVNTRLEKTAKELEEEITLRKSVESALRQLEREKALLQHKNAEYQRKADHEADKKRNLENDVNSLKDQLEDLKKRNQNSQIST

Consider `CNC(=O)c1cccc(Cn2ccc3cc(-c4cc[nH]c4C)ccc3c2=O)c1` [Compound 306], for which the pIC50 in test [1] and in test [2] was 6.30 to 7.00 each time.

In the case of `[2H]C([2H])([2H])NC(=O)c1cccc(Cn2ccc3cc(-c4conc4C)ccc3c2=O)c1` [Compound 307], the pIC50 in test [1] is 7.00 to 7.96; in test [2], greater than 8.00.

Regarding `CNC(=O)c1cccc(Cn2ccc3cc(-c4cn[nH]c4)ccc3c2=O)c1` [Compound 308], the pIC50 in test [1] and in test [2] was greater than 8.00 in each case.

In the case of `CNC(=O)c1cccc(C(C)n2ccc3cc(-c4conc4C)ccc3c2=O)c1` (stereo not drawn) [Compound 309], the negative-log IC50 (pIC50) in test [1] is 7.00 to 7.96; in test [2], greater than 8.00.

Regarding `CNC(=O)c1cccc(Cn2cc(Cl)c3cc(-c4conc4C)ccc3c2=O)c1` [Compound 310], the negative-log IC50 (pIC50) in test [1] is 7.00 to 7.96; in test [2], greater than 8.00.

Consider `CNC(=O)c1cccc(Cn2ccc3cc(-c4conc4C)ccc3c2=O)n1` [Compound 311], for which the pIC50 in test [1] was less than 6.30; in test [2], 6.30 to 7.00.

For the molecule `CNC(=O)c1cncc(Cn2ccc3cc(-c4conc4C)ccc3c2=O)c1` [Compound 312], the results for the pIC50 in test [1] and in test [2] were 6.30 to 7.00 and 7.00 to 8.00, respectively.

In the case of `CNC(=O)c1cc(Cn2ccc3cc(-c4conc4C)ccc3c2=O)ccn1` [Compound 313], the pIC50 in test [1] is less than 6.30; in test [2], 6.30 to 7.00.

On to `CNC(=O)c1cccc(Cn2ccc3cc(-c4conc4C)ccc3c2=O)c1F` [Compound 314], for which the pIC50 in test [1] is 6.30 to 7.00; in test [2], 7.00 to 8.00.

Turning to `CNC(=O)c1cc(F)cc(C(C)n2ccc3cc(-c4conc4C)ccc3c2=O)c1` (stereo not drawn) [Compound 316], the figures for the pIC50 in test [1] and in test [2] were 7.00 to 7.96 and greater than 8.00, respectively.

As to `CNC(=O)c1cc(Cn2ccc3cc(-c4conc4C)ccc3c2=O)ccc1F` [Compound 317], the negative logarithm of the IC50 (pIC50) in test [1] is 6.30 to 7.00; in test [2], 7.00 to 8.00.

For `CNC(=O)c1cc(F)cc(Cn2cc(Cl)c3cc(-c4conc4C)ccc3c2=O)c1` [Compound 318], the pIC50 in test [1] was 7.00 to 7.96; in test [2], greater than 8.00.

As to `CNC(=O)c1cc(Cl)cc(Cn2ccc3cc(-c4conc4C)ccc3c2=O)c1` [Compound 319], the pIC50 in test [1] is 6.30 to 7.00; in test [2], 7.00 to 8.00.

Take `[2H]C([2H])([2H])NC(=O)c1cccc(Cn2ccc3cc(-c4ccnn4C)ccc3c2=O)c1` [Compound 321]: the values for the pIC50 in test [1] and in test [2] were 6.30 to 7.00 and 7.00 to 8.00, respectively.

As for `CNC(=O)c1cccc(C(C)n2ccc3cc(-c4ccnn4C)ccc3c2=O)c1` (stereo not drawn) [Compound 322], the negative-log IC50 (pIC50) was 6.30 to 7.00 in test [1] and 7.00 to 8.00 in test [2].

`CNC(=O)c1cc(Cl)cc(Cn2ccc3cc(-c4ccnn4C)ccc3c2=O)c1` [Compound 324]: the pIC50 in test [1] and in test [2] was 6.30 to 7.00 in each case.

As for `CNC(=O)c1cccc(Cn2ccc3cc(-c4ccncc4)ccc3c2=O)c1` [Compound 325], the pIC50 in test [1] was 6.30 to 7.00; in test [2] it was 7.00 to 8.00.

`CNC(=O)c1cccc(Cn2ccc3cc(-c4cnnn4C)ccc3c2=O)c1` [Compound 327]: the pIC50 in test [1] and in test [2] was less than 6.30 throughout.

For `CNC(=O)c1cccc(Cn2ccc3cc(N4CCOCC4)ccc3c2=O)c1` [Compound 328, N-methyl-3-((6-morpholino-1-oxoisoquinolin-2(1H)-yl)methyl)benzamide], the negative logarithm of the IC50 (pIC50) in test [1] is 6.30 to 7.00; in test [2] it was 7.00 to 8.00.

`CNC(=O)c1cc(F)cc(Cn2ccc3cc(N4CCOCC4)ccc3c2=O)c1` [Compound 329]: the results for the negative-log IC50 (pIC50) in test [1] and in test [2] were 6.30 to 7.00 and 7.00 to 8.00, respectively.

Consider `CNC(=O)c1cccc(Cn2ccc3cc(N4CC5CC(C4)O5)ccc3c2=O)c1` [Compound 330], for which the negative logarithm of the IC50 (pIC50) in test [1] and in test [2] was less than 6.30 each time.

For `CNC(=O)c1cccc(Cn2ccc3cc(N4CCO[C@@H](C)C4)ccc3c2=O)c1` [Compound 331], the negative-log IC50 (pIC50) was less than 6.30 in test [1] and 6.30 to 7.00 in test [2].

Take `CC(=O)Nc1cccc(Cn2ccc3cc(-c4ccoc4C)ccc3c2=O)c1` [Compound 332, N-(3-((6-(2-methylfuran-3-yl)-1-oxoisoquinolin-2(1H)-yl)methyl)phenyl)acetamide]: the pIC50 in test [1] is less than 6.30; in test [2] it was 6.30 to 7.00.

Turning to `CC(=O)Nc1cc(F)cc(Cn2ccc3cc(-c4ccoc4C)ccc3c2=O)c1` [Compound 333], the pIC50 is less than 6.30 in test [1] and 6.30 to 7.00 in test [2].

As for `CC(=O)Nc1cccc(Cn2ccc3cc(-c4cnoc4C)ccc3c2=O)c1` [Compound 334], the negative-log IC50 (pIC50) is 6.30 to 7.00 in test [1] and 7.00 to 8.00 in test [2].

Take `CC(=O)Nc1cc(Cn2ccc3cc(-c4cnoc4C)ccc3c2=O)ccc1F` [Compound 335]: the negative-log IC50 (pIC50) was 6.30 to 7.00 in test [1] and 7.00 to 8.00 in test [2].

For the molecule `CC(=O)Nc1cccc(Cn2ccc3cc(-c4c[nH]nc4C)ccc3c2=O)c1` [Compound 336], the pIC50 is 6.30 to 7.00 in test [1] and 7.00 to 8.00 in test [2].

On to `CC(=O)Nc1cccc(Cn2ccc3cc(-c4c[nH]nc4C(F)(F)F)ccc3c2=O)c1` [Compound 337], for which the figures for the pIC50 in test [1] and in test [2] were 6.30 to 7.00 and 7.00 to 8.00, respectively.

Take `CC(C)C(=O)Nc1cccc(Cn2ccc3cc(-c4c[nH]nc4C(F)(F)F)ccc3c2=O)c1` [Compound 338]: the negative-log IC50 (pIC50) in test [1] is 7.00 to 7.96; in test [2], 7.00 to 8.00.

With `O=C(Nc1cccc(Cn2ccc3cc(-c4c[nH]nc4C(F)(F)F)ccc3c2=O)c1)C1CCOCC1` [Compound 339], the pIC50 is 6.30 to 7.00 in test [1] and 7.00 to 8.00 in test [2].

With `O=C(CCc1ccccn1)Nc1cccc(Cn2ccc3cc(-c4c[nH]nc4C(F)(F)F)ccc3c2=O)c1` [Compound 340], the pIC50 in test [1] was 7.00 to 7.96; in test [2], greater than 8.00.

Turning to `CC(=O)Nc1cccc(Cn2ccc3cc(-c4c[nH]nc4C(F)F)ccc3c2=O)c1` [Compound 341], the negative logarithm of the IC50 (pIC50) in test [1] is 6.30 to 7.00; in test [2], 7.00 to 8.00.

Regarding `O=C(Nc1cccc(Cn2ccc3cc(-c4c[nH]nc4C(F)F)ccc3c2=O)c1)c1cccnc1` [Compound 342], the pIC50 in test [1] is 6.30 to 7.00; in test [2] it was 7.00 to 8.00.

In the case of `O=C(Nc1cccc(Cn2ccc3cc(-c4c[nH]nc4C(F)F)ccc3c2=O)c1)C1COC1` [Compound 343], the values for the pIC50 in test [1] and in test [2] were 6.30 to 7.00 and 7.00 to 8.00, respectively.

With `O=C(Nc1cccc(Cn2ccc3cc(-c4c[nH]nc4C(F)F)ccc3c2=O)c1)c1ccccc1` [Compound 344], the negative logarithm of the IC50 (pIC50) in test [1] was 6.30 to 7.00; in test [2], 7.00 to 8.00.

Regarding `CC(=O)Nc1cccc(Cn2ccc3cc(-c4c[nH]nc4Cl)ccc3c2=O)c1` [Compound 345], the negative-log IC50 (pIC50) in test [1] was 7.00 to 7.96; in test [2], 7.00 to 8.00.

In the case of `O=C(Nc1cccc(Cn2ccc3cc(-c4c[nH]nc4Cl)ccc3c2=O)c1)C1COC1` [Compound 346], the pIC50 in test [1] was 6.30 to 7.00; in test [2], 7.00 to 8.00.

For `CC(=O)Nc1cccc(Cn2ccc3cc(-c4conc4C)ccc3c2=O)c1` [Compound 347], the pIC50 in test [1] is 6.30 to 7.00; in test [2] it was 7.00 to 8.00.

Consider `Cc1nocc1-c1ccc2c(=O)n(Cc3cccc(NC(=O)C4COC4)c3)ccc2c1` [Compound 348], for which the results for the pIC50 in test [1] and in test [2] were 7.00 to 7.96 and 7.00 to 8.00, respectively.

As for `Cc1nocc1-c1ccc2c(=O)n(Cc3cccc(NC(=O)c4ccc(F)cc4)c3)ccc2c1` [Compound 349], the values for the pIC50 in test [1] and in test [2] were 7.00 to 7.96 and 7.00 to 8.00, respectively.

As to `Cc1nocc1-c1ccc2c(=O)n(Cc3cc(F)cc(NC(=O)c4ccccn4)c3)ccc2c1` [Compound 350], the pIC50 in test [1] was 6.30 to 7.00; in test [2], 7.00 to 8.00.

Consider `CC(=O)Nc1cc(F)cc(Cn2ccc3cc(-c4conc4C)ccc3c2=O)c1` [Compound 351], for which the values for the pIC50 in test [1] and in test [2] were 6.30 to 7.00 and 7.00 to 8.00, respectively.

Turning to `CC(=O)Nc1cccc(Cn2ccc3cc(-c4cn[nH]c4)ccc3c2=O)c1` [Compound 352], the pIC50 in test [1] was 6.30 to 7.00; in test [2], 7.00 to 8.00.

Consider `CC(=O)Nc1cc(F)cc(Cn2ccc3cc(-c4ccnc(N)c4)ccc3c2=O)c1` [Compound 353], for which the negative-log IC50 (pIC50) in test [1] is less than 6.30; in test [2] it was 6.30 to 7.00.

`COc1cccc(Cn2cnc3cc(-c4cn[nH]c4)ccc3c2=O)c1` [Compound 354, 3-(3-methoxybenzyl)-7-(1H-pyrazol-4-yl)quinazolin-4(3H)-one]: the pIC50 was 7.00 to 7.96 in test [1] and 7.00 to 8.00 in test [2].

Turning to `COc1cccc(Cn2cnc3cc(-c4c[nH]nc4C)ccc3c2=O)c1` [Compound 355], the values for the negative logarithm of the IC50 (pIC50) in test [1] and in test [2] were 7.00 to 7.96 and 7.00 to 8.00, respectively.

Turning to `COc1cccc(Cn2cnc3cc(-c4conc4C)ccc3c2=O)c1` [Compound 357], the pIC50 in test [1] was 7.00 to 7.96; in test [2], 7.00 to 8.00.

Turning to `COc1cccc(Cn2cnc3cc(-c4ccnn4C)ccc3c2=O)c1` [Compound 358], the pIC50 in test [1] is 7.00 to 7.96; in test [2] it was 7.00 to 8.00.

On to `COc1cccc(Cn2cnc3cc(-c4c[nH]nc4C(F)F)ccc3c2=O)c1` [Compound 359], for which the pIC50 in test [1] is 7.00 to 7.96; in test [2] it was greater than 8.00.

As to `COc1cc(F)cc(Cn2cnc3cc(-c4c[nH]nc4C(F)F)ccc3c2=O)c1` [Compound 360], the pIC50 is 7.00 to 7.96 in test [1] and greater than 8.00 in test [2].

On to `COc1cc(F)cc(Cn2cnc3cc(-c4c[nH]nc4Cl)ccc3c2=O)c1` [Compound 361], for which the figures for the pIC50 in test [1] and in test [2] were 7.00 to 7.96 and greater than 8.00, respectively.

As to `COc1cccc(Cn2cnc3cc(-c4c[nH]nc4Cl)ccc3c2=O)c1` [Compound 362], the pIC50 is 7.00 to 7.96 in test [1] and greater than 8.00 in test [2].

`COc1cccc(Cn2cnc3cc(-c4ccncc4)ccc3c2=O)c1` [Compound 363]: the pIC50 was 7.00 to 7.96 in test [1] and 7.00 to 8.00 in test [2].

As to `COc1cccc(Cn2cnc3cc(-c4ccnc(N)c4)ccc3c2=O)c1` [Compound 364], the pIC50 in test [1] is 7.00 to 7.96; in test [2] it was 7.00 to 8.00.

A word on the pIC50: it is the negative decadic logarithm of the IC50, by convention in mol/L.
